Mutagenic call data for nine compounds are collected here from PubChem BioAssay AID1259407 (Chemical Carcinogenesis Research Information System (CCRIS), 2018).

Activity calls are given as the source filed them. The rule behind the calls is not given here.

The subject of this data set is CCRIS mutagenicity, Ames/micronucleus/aberration tests. Kind of data set: CCRIS mutagenicity studies.
Setting [1] is: Test System: AMES SALMONELLA TYPHIMURIUM, Strain/Indicator: TA98, Metabolic Activation: NONE, Method: STANDARD PLATE.
The mark [2] stands for this setting: Test System: AMES SALMONELLA TYPHIMURIUM, Strain/Indicator: TA98, Metabolic Activation: RAT, LIVER, S-9, AROCLOR 1254, Method: STANDARD PLATE.
The mark [3] stands for this setting: Test System: AMES SALMONELLA TYPHIMURIUM, Strain/Indicator: TA100, Metabolic Activation: NONE, Method: STANDARD PLATE.
Setting [4] is: Test System: AMES SALMONELLA TYPHIMURIUM, Strain/Indicator: TA100, Metabolic Activation: RAT, LIVER, S-9, AROCLOR 1254, Method: STANDARD PLATE.
Setting [5] is: Test System: AMES SALMONELLA TYPHIMURIUM, Strain/Indicator: TA1535, Metabolic Activation: NONE, Method: STANDARD PLATE.
The mark [6] stands for this setting: Test System: AMES SALMONELLA TYPHIMURIUM, Strain/Indicator: TA1535, Metabolic Activation: RAT, LIVER, S-9, AROCLOR 1254, Method: STANDARD PLATE.
Setting [7] is: Test System: AMES SALMONELLA TYPHIMURIUM, Strain/Indicator: TA1537, Metabolic Activation: NONE, Method: STANDARD PLATE.
[8] abbreviates: Test System: AMES SALMONELLA TYPHIMURIUM, Strain/Indicator: TA1538, Metabolic Activation: NONE, Method: STANDARD PLATE.
Setting [9] is: Test System: AMES SALMONELLA TYPHIMURIUM, Strain/Indicator: TA1538, Metabolic Activation: RAT, LIVER, S-9, AROCLOR 1254, Method: STANDARD PLATE.
[10] abbreviates: Test System: AMES SALMONELLA TYPHIMURIUM, Strain/Indicator: TA1537, Metabolic Activation: RAT, LIVER, S-9, AROCLOR 1254, Method: STANDARD PLATE.

For the compound `O=S(=O)(O)c1c(N=Nc2c(O)ccc3ccccc23)ccc2ccccc12`, the mutagenic call reads like this: (Test System: AMES SALMONELLA TYPHIMURIUM, Strain/Indicator: TA98, Metabolic Activation: HAMSTER, LIVER, S-9, AROCLOR 1254, Method: STANDARD PLATE) “active; positive”; (Test System: AMES SALMONELLA TYPHIMURIUM, Strain/Indicator: TA98, Metabolic Activation: HAMSTER, LIVER, S-9, Method: PREINCUBATION (PRIVAL METHOD)) “inactive; negative”; under setting [1], “active; positive”; under setting [2], “inactive; negative”; (Test System: AMES SALMONELLA TYPHIMURIUM, Strain/Indicator: TA100, Metabolic Activation: HAMSTER, LIVER, S-9, AROCLOR 1254, Method: STANDARD PLATE) “active; positive”; under setting [3], “inactive; negative”. In addition, the mutagenic call by setting is: under setting [4], “inactive; negative”; (Test System: AMES SALMONELLA TYPHIMURIUM, Strain/Indicator: TA1535, Metabolic Activation: HAMSTER, LIVER, S-9, AROCLOR 1254, Method: STANDARD PLATE) “active; positive”; under setting [5], “inactive; negative”; under setting [6], “inactive; negative”; under setting [7], “inactive; negative”; (Test System: AMES SALMONELLA TYPHIMURIUM, Strain/Indicator: TA1538, Metabolic Activation: HAMSTER, LIVER, S-9, AROCLOR 1254, Method: STANDARD PLATE) “active; positive”. Further, the mutagenic call is, setting by setting: under setting [8], “inactive; negative”; under setting [9], “inactive; negative”; (Test System: MOUSE LYMPHOMA, Strain/Indicator: L5178Y (TK+/TK-), Metabolic Activation: NONE, Method: SUSPENSION/PLATE) “inactive; negative. reevaluation of results: inconclusive”; (Test System: MOUSE LYMPHOMA, Strain/Indicator: L5178Y (TK+/TK-), Metabolic Activation: RAT, LIVER, S-9, AROCLOR 1254, Method: SUSPENSION/PLATE) “inactive; negative. reevauluation of results: negative”.

As to `O=S(=O)(O)N(S(=O)(=O)O)S(=O)(=O)O`, the mutagenic call reads like this: (Test System: AMES SALMONELLA TYPHIMURIUM, Strain/Indicator: G46, Metabolic Activation: RAT, LIVER, S-9, AROCLOR 1254, Method: STANDARD PLATE) “inactive; negative”; under setting [4], “inactive; negative”.

Take `O=Nc1nc[nH]c1-c1ccccc1`: under setting [3], the mutagenic call is “active; positive”.

As for `O=[N+]([O-])c1cc(NS(=O)(=O)c2cccc3cccnc23)ccc1Cl`, the mutagenic call under setting [1] is “inactive; negative”; the mutagenic call under setting [2] was “inactive; negative”; the mutagenic call under setting [3] was “inactive; negative”; the mutagenic call under setting [4] was “inactive; negative”; the mutagenic call under setting [5] is “inactive; negative”; the mutagenic call under setting [6] was “inactive; negative”. Further, the mutagenic call under setting [7] is “inactive; negative” and the mutagenic call under setting [10] was “inactive; negative”.

As for `C=CC(=O)OCC(Br)CBr` (stereo not given), the mutagenic call is “active; positive” (Test System: AMES SALMONELLA TYPHIMURIUM, Strain/Indicator: TA98, Metabolic Activation: HAMSTER, LIVER, S-9, AROCLOR 1254 (10%), Method: PREINCUBATION); “inactive; negative” (Test System: AMES SALMONELLA TYPHIMURIUM, Strain/Indicator: TA98, Metabolic Activation: NONE, Method: PREINCUBATION); “inactive; negative” (Test System: AMES SALMONELLA TYPHIMURIUM, Strain/Indicator: TA98, Metabolic Activation: RAT, LIVER, S-9, AROCLOR 1254 (10%), Method: PREINCUBATION); “active; positive” (Test System: AMES SALMONELLA TYPHIMURIUM, Strain/Indicator: TA100, Metabolic Activation: HAMSTER, LIVER, S-9, AROCLOR 1254 (10%), Method: PREINCUBATION); “inactive; negative” (Test System: AMES SALMONELLA TYPHIMURIUM, Strain/Indicator: TA100, Metabolic Activation: NONE, Method: PREINCUBATION); “active; positive” (Test System: AMES SALMONELLA TYPHIMURIUM, Strain/Indicator: TA100, Metabolic Activation: RAT, LIVER, S-9, AROCLOR 1254 (10%), Method: PREINCUBATION). For the same compound, the mutagenic call reads like this: (Test System: AMES SALMONELLA TYPHIMURIUM, Strain/Indicator: TA1535, Metabolic Activation: HAMSTER, LIVER, S-9, AROCLOR 1254 (10%), Method: PREINCUBATION) “active; positive”; (Test System: AMES SALMONELLA TYPHIMURIUM, Strain/Indicator: TA1535, Metabolic Activation: NONE, Method: PREINCUBATION) “active; positive”; (Test System: AMES SALMONELLA TYPHIMURIUM, Strain/Indicator: TA1535, Metabolic Activation: RAT, LIVER, S-9, AROCLOR 1254 (10%), Method: PREINCUBATION) “active; positive”; (Test System: AMES SALMONELLA TYPHIMURIUM, Strain/Indicator: TA1537, Metabolic Activation: HAMSTER, LIVER, S-9, AROCLOR 1254 (10%), Method: PREINCUBATION) “inactive; negative”; (Test System: AMES SALMONELLA TYPHIMURIUM, Strain/Indicator: TA1537, Metabolic Activation: NONE, Method: PREINCUBATION) “inactive; negative”; (Test System: AMES SALMONELLA TYPHIMURIUM, Strain/Indicator: TA1537, Metabolic Activation: RAT, LIVER, S-9, AROCLOR 1254 (10%), Method: PREINCUBATION) “inactive; negative”.

With `O=[N+]([O-])c1cc(C(F)(F)F)cc([N+](=O)[O-])c1O`, the mutagenic call reads like this: under setting [1], “inactive; negative”; under setting [2], “inactive; negative”; under setting [3], “inactive; negative”; under setting [4], “inactive; negative”; under setting [5], “inactive; negative”; under setting [6], “inactive; negative”. Besides, the mutagenic call was “inactive; negative” under setting [7], “inactive; negative” under setting [10], “inactive; negative” under setting [8] and “inactive; negative” under setting [9].

Consider `Cc1ncc2c(n1)CCC2`, for which the mutagenic call under setting [1] is “inactive; negative”; the mutagenic call (Test System: AMES SALMONELLA TYPHIMURIUM, Strain/Indicator: TA98, Metabolic Activation: RAT, LIVER, S-9, Method: STANDARD PLATE) is “inactive; negative”; the mutagenic call under setting [3] is “inactive; negative”; the mutagenic call (Test System: AMES SALMONELLA TYPHIMURIUM, Strain/Indicator: TA100, Metabolic Activation: RAT, LIVER, S-9, Method: STANDARD PLATE) is “inactive; negative”; the mutagenic call under setting [5] was “inactive; negative”; the mutagenic call (Test System: AMES SALMONELLA TYPHIMURIUM, Strain/Indicator: TA1535, Metabolic Activation: RAT, LIVER, S-9, Method: STANDARD PLATE) was “inactive; negative”. Besides, the mutagenic call by setting is: under setting [7], “inactive; negative”; (Test System: AMES SALMONELLA TYPHIMURIUM, Strain/Indicator: TA1537, Metabolic Activation: RAT, LIVER, S-9, Method: STANDARD PLATE) “inactive; negative”; under setting [8], “inactive; negative”; (Test System: AMES SALMONELLA TYPHIMURIUM, Strain/Indicator: TA1538, Metabolic Activation: RAT, LIVER, S-9, Method: STANDARD PLATE) “inactive; negative”.

In the case of `Cc1cc(N)cc([N+](=O)[O-])c1N`, the mutagenic call by setting is: under setting [2], “active; positive”; under setting [9], “active; positive”.

Consider `COc1ccc(N(CCCl)CCCl)c2cc([N+](=O)[O-])oc12`, for which the mutagenic call reads like this: (Test System: AMES SALMONELLA TYPHIMURIUM, Strain/Indicator: TA100(NR), Metabolic Activation: NONE, Method: STANDARD PLATE) “inactive; negative”; (Test System: AMES SALMONELLA TYPHIMURIUM, Strain/Indicator: TA100(NR), Metabolic Activation: RAT, LIVER, S-9, AROCLOR 1254, Method: STANDARD PLATE) “active; positive”; under setting [3], “active; positive”; under setting [4], “active; positive”.
